According to publication PMC11218446, “Antibacterial efficacy and membrane mechanism of action of the Serratia-derived non-ionic lipopeptide, serrawettin W2-FL10” (Microbiology Spectrum, 2024):
In brackets after ≈: the same amount, converted by molar mass. Several values for one entry are separate records, joined by “and”; a condition that tells them apart may be missing. Equal entries are not always repeated.

Experiments:
S. aureus ATCC 25923 [1] = assay: Broth microdilution assay (OD 600 nm); type: cell-based, Staphylococcus aureus
Protocol: (§1) Serrawettin W2-FL10 (95% pure) was tested for antibacterial activity using a broth microdilution susceptibility assay ([6]), with melittin included as an antibiotic control. The serrawettin W2-FL10 was prepared in 70% MeCN to 1.00 mg/mL, from which aliquots were prepared using 70% MeCN to a concentration of 50 µg/mL or 500 µg/mL, while aliquots of melittin were prepared using analytical quality H2O to 128 µg/mL. Fifty microliters of the respective W2-FL10 aliquots or melittin were dispensed into a clear 96-well plate and a microdilution (in 70% MeCN for W2-FL10 or analytical quality H2O for melittin) was performed within the plate. The plate was air-dried to remove the solvent and placed in a desiccator with chloroform for 20 min for sterilization.
(§2) All the cultures (inoculated into 5 mL MHB, or 5 mL TSB for Listeria and Enterococcus strains) were incubated at 37°C to reach an optical density (OD) of 0.4 at 600 nm (∼10^7 CFU/mL). A 1:20 dilution of the test strain (final concentration of ∼10^5 CFU/mL) was prepared and 100 µL was dispensed into each well (final concentration of W2-FL10 at 1.5–125 µg/mL and melittin at 2–32 µg/mL). Sterile broth and the OD-adjusted inoculum were included as positive controls, while sterile broth (no inoculum) was included as a negative control. The 96-well plate was incubated for 18 h at 37°C. All the tests were performed in triplicate, with independent duplicates. Following incubation, the absorbance was measured using a microtiter plate reader at 600 nm. The 50% growth inhibition concentration (IC50) was determined using GraphPad Prism version 5 for Windows [GraphPad Software, San Diego, USA (www.graphpad.com)]. A sigmodal curve with variable slope was fitted to each set of dose-repose data according to Rautenbach et al. ([17]) using equation (1):
(§3) (1) Y=bottom+(top−bottom)/1+10^logIC50×Activity slope
(§4) The “top” and “bottom” are the maximum and minimum inhibition responses, respectively, for a particular set of dose-response data, while the activity slope is related to the Hill slope of a sigmoidal binding curve ([16]). […] The MIC value was determined for each set of dose-response data as the lowest concentration, resulting in ≥90% inhibition of the target cell growth. In addition to the MIC and IC50 inhibition parameters, an inhibition concentration factor (ICF), was calculated as outlined in Rautenbach et al. ([17]). The ICF is indicative of the concentration increase from the highest concentration where no activity is observed to the MIC of a compound.

S. aureus RN4220 [2] = assay: Broth microdilution assay (OD 600 nm); type: cell-based, Staphylococcus aureus
Protocol: as §1, §2, §3, §4

[3] = system: S. aureus Xen 30 (MRSA Xen 30); assay: Broth microdilution assay (OD 600 nm); type: cell-based, Staphylococcus aureus
Protocol: as §1, §2, §3, §4

B. subtilis ATCC 6051 = assay: Broth microdilution assay (OD 600 nm); type: cell-based, Bacillus subtilis
Protocol: as §1
as §2, with “A sigmodal curve with variable slope was fitted to each set of dose-repose data according to Rautenbach et al. ([17]) using equation (1):” left out
The “top” and “bottom” are the maximum and minimum inhibition responses, respectively, for a particular set of dose-response data, while the activity slope is related to the Hill slope of a sigmoidal binding curve ([16]). […] In addition to the MIC and IC50 inhibition parameters, an inhibition concentration factor (ICF), was calculated as outlined in Rautenbach et al. ([17]). […]

E. faecium S1 = assay: Broth microdilution assay (OD 600 nm); type: cell-based, Enterococcus faecium
Protocol: as §1, §2, §3, §4

MRSA Xen 30 = assay: Membrane depolarization assay, DiSC3(5); type: cell-based, Staphylococcus aureus
Protocol: (§5) The membrane depolarization capability (ability to disrupt membrane potential) of the W2-FL10 against S. aureus ATCC 25923, S. aureus RN4220, or MRSA Xen 30 was determined using the voltage-sensitive fluorescent probe, DiSC3(5) ([20]). Briefly, black 96-well plates were prepared with W2-FL10 at 12.5 µg/mL and 25 µg/mL, while 4 and 8 µg/mL of melittin were used as a positive depolarization control, and the plates were air dried as described in the “Antibacterial activity: broth microdilution assay” section. The S. aureus strains were inoculated into MHB and grown to the mid-log phase (OD600 of 0.5–0.6). Cells were harvested by centrifugation at 3,000 rpm for 10 min and resuspended in HEPES buffer (5 mM, pH 7.4, containing 20 mM glucose; 100 mM KCl) to OD600 of 0.05. Thereafter, DiSC3(5) (stock concentration of 400 µM in 100% DMSO) was added to the cell suspension to a final concentration of 0.4 µM, and cells were incubated in the dark at room temperature for 40 min. Cell suspensions (100 µL) were then dispensed into the wells of the black 96-well plate. Sterile broth and the OD-adjusted inoculum with DiSC3(5) were included as a non-fluorescent control, sterile broth with DiSC3(5) was included as a sterility control, and melittin was included as membrane depolarization control. All the tests were performed in triplicate, with independent duplicates. Fluorometric readings of the plate were conducted at 1 min intervals over 12 min (readings began 60 s after cells were added to the plates) using a Tecan Spark at 622 nm excitation wavelength and 670 nm emission wavelength. Statistical comparison of the kinetic trends elicited by the treatment with peptide with the control (cells alone) was done using two-way ANOVA with Bonferroni’s post hoc test.

S. aureus ATCC 25923 [4] = assay: Membrane depolarization assay, DiSC3(5); type: cell-based, Staphylococcus aureus
Protocol: as §5

S. aureus RN4220 [5] = assay: Membrane depolarization assay, DiSC3(5); type: cell-based, Staphylococcus aureus
Protocol: as §5

three S. aureus strains = assay: Membrane depolarization assay, DiSC3(5), summary; type: cell-based, Staphylococcus aureus; settings: abstract
Protocol: The membrane depolarization capability (ability to disrupt membrane potential) of the W2-FL10 against S. aureus ATCC 25923, S. aureus RN4220, or MRSA Xen 30 was determined using the voltage-sensitive fluorescent probe, DiSC3(5) ([20]). Briefly, black 96-well plates were prepared with W2-FL10 at 12.5 µg/mL and 25 µg/mL, while 4 and 8 µg/mL of melittin were used as a positive depolarization control, and the plates were air dried as described in the “Antibacterial activity: broth microdilution assay” section. The S. aureus strains were inoculated into MHB and grown to the mid-log phase (OD600 of 0.5–0.6). Cells were harvested by centrifugation at 3,000 rpm for 10 min and resuspended in HEPES buffer (5 mM, pH 7.4, containing 20 mM glucose; 100 mM KCl) to OD600 of 0.05. Thereafter, DiSC3(5) (stock concentration of 400 µM in 100% DMSO) was added to the cell suspension to a final concentration of 0.4 µM, and cells were incubated in the dark at room temperature for 40 min. Cell suspensions (100 µL) were then dispensed into the wells of the black 96-well plate. […] Fluorometric readings of the plate were conducted at 1 min intervals over 12 min (readings began 60 s after cells were added to the plates) using a Tecan Spark at 622 nm excitation wavelength and 670 nm emission wavelength. […]

[6] = Oligomer detection by ESI-HRMS; type: physicochemical; settings: MaxEnt 3 mass spectrum (Fig. 1C)
Enterococcus faecium = settings: cited from earlier work
Excerpt: The antimicrobial activity of the serrawettin W2-FI10 analog (i.e., C10H18O2-Leu-Ser-Thr-Phe-Ile), has been extensively investigated.

[7] = 50% growth inhibition, sigmoidal curve fit, n = 3
[8] = inhibition concentration factor
[9] = ≥90% growth inhibition, OD 600 nm, MHB, 18 h 37°C

With `CCCCCCCC1CC(=O)N[C@H](CC(C)C)C(=O)N[C@@H](CO)C(=O)N[C@@H]([C@@H](C)O)C(=O)N[C@H](Cc2ccccc2)C(=O)N[C@@H](CC(C)C)C(=O)O1` (stereo partly shown) [W2-FL10, serrawettin W2-FL10] the “IC50 ± SD” value (S. aureus ATCC 25923 [1]; [7]) was 5.5 ± 0.3 (3) µg/mL, the Selectivity index (S. aureus ATCC 25923 [1]; LC50 (CHO)/IC50) was 5.3 and the “ICF (MIC/IC50)^2” value (S. aureus ATCC 25923 [1]; [8]) was 5.2. For the same molecule, the MIC (S. aureus ATCC 25923 [1]; [9]) was 12.5 μg/mL and 12.5 (17.1) μg/mL, the “IC50 ± SD” value (S. aureus RN4220 [2]; [7]) was 5.7 ± 0.6 (3) µg/mL and the Selectivity index (S. aureus RN4220 [2]; LC50 (CHO)/IC50) was 5.1. The “ICF (MIC/IC50)^2” value (S. aureus RN4220 [2]; [8]) was 4.9, the MIC (S. aureus RN4220 [2]; [9]) was 12.5 μg/mL and 12.5 (17.1) μg/mL and the “IC50 ± SD” value [3, 7] was 5.7 ± 0.6 (3) µg/mL. For the same molecule, the Selectivity index ([3]; LC50 (CHO)/IC50) was 5.1, the “ICF (MIC/IC50)^2” value [3, 8] was 4.8 and the MIC [3, 9] was 12.5 μg/mL and 12.5 (17.1) μg/mL. The “IC50 ± SD” value (B. subtilis ATCC 6051; [7]) was 13.4 ± 0.8 (3) µg/mL, the Selectivity index (B. subtilis ATCC 6051; LC50 (CHO)/IC50) was 2.2 and the MIC (B. subtilis ATCC 6051; [9]) was 31.3 μg/mL and 31.3 (42.7) μg/mL. The “IC50 ± SD” value (E. faecium S1; [7]) was 5.4 ± 0.1 (3) µg/mL, the Selectivity index (E. faecium S1; LC50 (CHO)/IC50) was 5.4 and the “ICF (MIC/IC50)^2” value (E. faecium S1; [8]) was 5.9. For the same molecule, the MIC (E. faecium S1; ≥90% growth inhibition, OD 600 nm, TSB, 18 h 37°C) was 12.5 μg/mL and 12.5 (17.1) μg/mL, the “depolarization, in words” value (MRSA Xen 30; 12.5 µg/mL, up to 720 s) was “appreciable depolarization” and the “time at which the DiSC3(5) fluorescent signal doubled” value (MRSA Xen 30; 25 µg/mL) was 420 s. The “increase in DiSC3(5) fluorescent signal, in words” value (S. aureus ATCC 25923 [4]; 12.5 µg/mL, up to 720 s (Fig. 4A)) was “negligible”, the “time at which the DiSC3(5) fluorescent signal doubled” value (S. aureus ATCC 25923 [4]; 25 µg/mL) was 660 s and the “increase in DiSC3(5) fluorescent signal, in words” value (S. aureus RN4220 [5]; 12.5 µg/mL, up to 720 s (Fig. 4C)) was “negligible”. For the same molecule, the “time at which the DiSC3(5) fluorescent signal doubled” value (S. aureus RN4220 [5]; 25 µg/mL) was 480 s, the “time within which membrane potential was dissipated” value (three S. aureus strains) was ≤ 12 min and the oligomers detected [6] was “dimers, trimers, tetramers, and pentamers”. For the same molecule, the “minimum inhibitory concentration (MIC)” value (Enterococcus faecium) was 15.6 µg/mL (≈ 21.3 µM).
